Experimental data from US12187672B2, “1,2-diacylglycerol compound, preparation method therefor, and immunomodulator containing same as active ingredient” (ENZYCHEM LIFESCIENCES CORPORATION, priority 2018, dated 2025).

Tests used:
[1] = tested on: HL-60 cells; experiment: Migration of HL-60 cell line toward THP-1 culture supernatant (transmigration assay); type: cell-based, human; settings: supernatant of THP-1 cells treated with sample 100 μg/ml 1 h, then Gemcitabine 2 μg/ml 24 h
Outline: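 THP-1 cells pretreated 1 h with compounds, then stimulated with gemcitabine (2 μg/ml) for 24 h; supernatant placed in lower chamber. HL-60 cells (5×10^4/chamber) migrated through laminin I-coated upper chamber; migrated cells quantified by Calcein-AM fluorescence converted to cell number.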

[2] = tested on: STAT6; experiment: IL-4-induced STAT6 activity, pGL4-STAT6 luciferase reporter in A549 cells; type: cell-based; settings: sample 100 μg/ml 1 h
Outline: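 A549 cells transiently transfected with pGL4-STAT6 reporter (24 h), pretreated with compound 1 h, then stimulated with IL-4 (2 ng/ml or 10 ng/ml) for 20 h. Cells lysed and luciferase luminescence read as STAT6 activity.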

[3] = tested on: IL-6; experiment: LPS-induced IL-6 secretion reduction in RAW264.7 cells (ELISA); type: cell-based, mouse; settings: for IL-6 concentration (average ± deviation): sample 100 μg/ml 1 h, then LPS 1 μg/ml 24 h
Outline: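 Mouse RAW264.7 macrophages in DMEM/10% FBS were plated at 5×10^4 cells/ml, rested for 15 h, treated with compound for 1 h, then stimulated with 1 μg/ml LPS for 24 h at 37 °C. IL-6 in the supernatant was measured by sandwich ELISA (HRP, OD 450 nm) and expressed as reduction rate or concentration.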

[4] = tested on: CXCL8 (IL-8); experiment: CXCL8 (IL-8) expression reduction in Gemcitabine-treated THP-1 cells (ELISA); type: cell-based, human; settings: THP-1 cells; for reduction of CXCL8 (IL-8) expression/secretion: Gemcitabine-treated, 100 μg/ml; for CXCL8 [IL-8] concentration (average ± deviation): sample 100 μg/ml 1 h, then Gemcitabine 2 μg/ml 24 h
Outline: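 Human THP-1 macrophage-like cells in RPMI/10% FBS, plated at 1×10^6 cells/ml, pretreated 1 h with compound, then stimulated with Gemcitabine (2 μg/ml) for 24 h at 37° C, 5% CO2. Secreted IL-8 in the supernatant was measured by sandwich ELISA, read at 450 nm.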

[5] = then IL-4 (2 ng/ml) 20 h, Table 9
[6] = then IL-4 (10 ng/ml) 20 h, Table 10

SMILES: CCCCC/C=C\C/C=C\CCCCCCCC(=O)OC(COC(C)=O)COC(=O)CCCCCCCCCCCCCCC (stereo not drawn) [EC-18, 1-palmitoyl-2-linoleoyl-3-acetylglycerol, reference compound]
- Number of HL-60 cells migrated through Transwell [1]: 2697.2 Cell Number
- STAT6 activity_Luciferase activity (average ± deviation) [2, 5]: 462.5 ± 161.7
- STAT6 activity_Luciferase activity (average ± deviation) [2, 6]: 18878.0 ± 500.8
- decrease of IL-6 secretion/expression compared to the LPS-treated group ([3]; 100 μg/ml): about 30%
- IL-6 concentration (average ± deviation) ([3]; Table 2): 194 ± 11 pg/µL
- IL-6 concentration (average ± deviation) ([3]; Table 3): 0.491 ± 0.063 pg/µL
- reduction of CXCL8 (IL-8) expression/secretion [4]: about 20%
- CXCL8 [IL-8] concentration (average ± deviation) [4]: 79.6 ± 6.0 pg/µL

SMILES: CCCCC/C=C\C/C=C\CCCCCCCC(=O)OC(COC(=O)CCCCCCCCCCCCCCC)COC(C)C (stereo not drawn) [EC_A21]
- Number of HL-60 cells migrated through Transwell [1]: 1986.3 Cell Number
- STAT6 activity_Luciferase activity (average ± deviation) [2, 5]: 880.0 ± 50.0
- IL-6 concentration (average ± deviation) ([3]; Table 2): 176 ± 2 pg/µL
- reduction of CXCL8 (IL-8) expression/secretion [4]: about 20%
- CXCL8 [IL-8] concentration (average ± deviation) [4]: 86.2 ± 0.7 pg/µL

SMILES: CCCCC/C=C\C/C=C\CCCCCCCC(=O)OC(COC(=O)CCCC)COC(=O)CCCCCCCCC (stereo not drawn) [EC_A99]
- Number of HL-60 cells migrated through Transwell [1]: 7164.9 Cell Number
- STAT6 activity_Luciferase activity (average ± deviation) [2, 6]: 17407.0 ± 1347.6
- IL-6 concentration (average ± deviation) ([3]; Table 3): 0.666 ± 0.075 pg/µL
- CXCL8 [IL-8] concentration (average ± deviation) [4]: 102.0 ± 19.3 pg/µL

SMILES: CCCCCC=CCC=CCCCCCCCC(=O)OC(COC(=O)CCCCCCC)COC(=O)C(C)(C)C (stereo not drawn) [EC_A89]
- Number of HL-60 cells migrated through Transwell [1]: 6969.9 Cell Number
- STAT6 activity_Luciferase activity (average ± deviation) [2, 6]: 18635.5 ± 846.4
- IL-6 concentration (average ± deviation) ([3]; Table 3): 0.736 ± 0.097 pg/µL
- CXCL8 [IL-8] concentration (average ± deviation) [4]: 123.1 ± 0.0 pg/µL

SMILES: CCCCC/C=C\C/C=C\CCCCCCCC(=O)OC(COC(=O)CCCCCC)COC(=O)CCCCCCCCCCCCCCC (stereo not drawn) [EC_A83]
- Number of HL-60 cells migrated through Transwell [1]: 7316.6 Cell Number
- STAT6 activity_Luciferase activity (average ± deviation) [2, 6]: 18788.2 ± 2805.4
- IL-6 concentration (average ± deviation) ([3]; Table 3): 0.658 ± 0.070 pg/µL
- CXCL8 [IL-8] concentration (average ± deviation) [4]: 107.7 ± 3.9 pg/µL

SMILES: CCCCC/C=C\C/C=C\CCCCCCCC(=O)OC(COC(=O)CCC)COC(=O)CCCCCCC (stereo not drawn) [EC_A85]
- Number of HL-60 cells migrated through Transwell [1]: 7687.7 Cell Number
- STAT6 activity_Luciferase activity (average ± deviation) [2, 6]: 19878.2 ± 4338.5
- IL-6 concentration (average ± deviation) ([3]; Table 3): 0.741 ± 0.071 pg/µL
- CXCL8 [IL-8] concentration (average ± deviation) [4]: 94.4 ± 3.4 pg/µL

SMILES: CCCCC/C=C\C/C=C\CCCCCCCC(=O)OC(COC(=O)CCCC)COC(=O)CCCCCCCCCCC (stereo not drawn) [EC_A93]
- Number of HL-60 cells migrated through Transwell [1]: 6828.6 Cell Number
- STAT6 activity_Luciferase activity (average ± deviation) [2, 6]: 15562.5 ± 900.7
- IL-6 concentration (average ± deviation) ([3]; Table 3): 0.765 ± 0.055 pg/µL
- CXCL8 [IL-8] concentration (average ± deviation) [4]: 110.9 ± 0.0 pg/µL

SMILES: CCCCC/C=C\C/C=C\CCCCCCCC(=O)OC(COC(=O)CC)COC(=O)CCCCCCCCCCCCCCC (stereo not drawn) [EC_A78]
- Number of HL-60 cells migrated through Transwell [1]: 23396.6 Cell Number
- STAT6 activity_Luciferase activity (average ± deviation) [2, 6]: 19208.7 ± 2129.6
- IL-6 concentration (average ± deviation) ([3]; Table 3): 0.708 ± 0.086 pg/µL
- CXCL8 [IL-8] concentration (average ± deviation) [4]: 108.5 ± 4.9 pg/µL

SMILES: CCCCC/C=C\C/C=C\CCCCCCCC(=O)OC(COC(=O)CCCCCCCCC)COC(=O)C(C)(C)C (stereo not drawn) [EC_A101]
- Number of HL-60 cells migrated through Transwell [1]: 4848.9 Cell Number
- STAT6 activity_Luciferase activity (average ± deviation) [2, 6]: 19438.7 ± 580.2
- IL-6 concentration (average ± deviation) ([3]; Table 3): 0.645 ± 0.057 pg/µL
- CXCL8 [IL-8] concentration (average ± deviation) [4]: 118.1 ± 2.8 pg/µL

SMILES: CCCCC/C=C\C/C=C\CCCCCCCC(=O)OC(COC(=O)CCCC)COC(=O)CCCCCCC (stereo not drawn) [EC_A86]
- Number of HL-60 cells migrated through Transwell [1]: 18542.0 Cell Number
- STAT6 activity_Luciferase activity (average ± deviation) [2, 6]: 18158.0 ± 3182.4
- IL-6 concentration (average ± deviation) ([3]; Table 3): 0.796 ± 0.045 pg/µL
- CXCL8 [IL-8] concentration (average ± deviation) [4]: 99.2 ± 4.9 pg/µL
